The source of these data is US20100112561A1, “FLUORESCENT NUCLEOSIDE ANALOGUES” (priority 2006, published 2010).

Assay [1] has as its system E. coli TOP10 and E. coli KY895. Briefly: fNA uptake by fluorescence microscopy, strains without exogenous kinase. Type of assay: cell-based. The conditions noted are these: both strains, no exogenous type-I kinase. The method, then:
To validate the accumulation of the fluorescent nucleotides inside bacterial cells, a series of fNA-uptake experiments was conducted in two E. coli strains. The E. coli TOP10 (Invitrogen) carries a native type-II thymidine kinase while E. coli KY895 is a thymidine kinase-deficient laboratory strain.

The test system of assay [2] is E. coli KY895 with pDIM-tDmdNK and TOP10 with pBAD-tDmdNK. Briefly: fNA accumulation by fluorescence microscopy, bacteria expressing DmdNK. The assay is classed as cell-based. The conditions noted are these: plasmid-encoded exogenous DmdNK, both strains, FIG. 8. The text has this:
FIG. 8 illustrates the fluorescence microscopy of E. coli KY895 with pDIM-tDmdNK (left) and TOP10 with pBAD-tDmdNK (right) in the presence of 1 (100× magnification; excitation: Hg-lamp at 325 nm). Noticeable in the two images of FIG. 8 is the highly variable fluorescence intensity in the E. coli KY895/pDIM sample, caused by disproportionate expression levels of the lac-promoter system. On the contrary, the arabinose-controlled pBAD system in E. coli TOP10 facilitates steadier kinase expression levels, resulting in a more uniform fluorescence signal.

Assay [3] has as its target T1, thymidine kinase from Thermotoga maritima (TmTK) (Thermotoga maritima, UniProt Q9WYN2).
T1 construct: made in house; host or cells: E. coli, pET-14b (Novagen)
Briefly: kinetic experiments with type-II kinases. Type of assay: biochemical. From the text: (§1) To investigate the kinetic properties of the above-described fNAs in vitro, a pET-based protein overexpression system was established for the production and purification of milligram quantities of individual dNKs. The genes for human 2′-deoxycytidine kinase (dCK) and fruitfly dNK (DmdNK), as well as the thymidine kinase from the bacterium Thermotoga maritime (TmTK) were subcloned into pET-14b (Novagen), an IPTG-inducible protein overexpression system that also introduces a poly-His tag at the target protein's amino terminus. […]
(§2) Experimentally, the kinase-catalyzed phosphotransfer reaction was monitored at 37° C. via a spectrophotometric, couple-enzyme assay (as described in Munch-Petersen, B., Knecht, W., Lenz, C., Sondergaard, L. and Piskur, J. (2000) functional expression of a multisubstrate deoxyribonucleoside kinase from Drosophila melanogaster and its C-terminal deletion mutants. J Bio chem, 275, 6673-6679; Schelling, P., Folkers, G. and Schapozza, L. (2001) A spectrophotometric assay for quantitative determination of kcat of herpes simplex virus type 1 thymidine kinase substrates. Anal Biochem, 295, 82-87, which are hereby incorporated by reference herein). […] The consumption of NADH can be monitored spectrophotometrically at 340 nm. […]

In assay [4] the target is T2, human 2′-deoxycytidine kinase (dCK) (Homo sapiens, UniProt P27707).
T2 construct: made in house; host or cells: E. coli, pET-14b (Novagen)
T2 sequence (P27707 whole entry): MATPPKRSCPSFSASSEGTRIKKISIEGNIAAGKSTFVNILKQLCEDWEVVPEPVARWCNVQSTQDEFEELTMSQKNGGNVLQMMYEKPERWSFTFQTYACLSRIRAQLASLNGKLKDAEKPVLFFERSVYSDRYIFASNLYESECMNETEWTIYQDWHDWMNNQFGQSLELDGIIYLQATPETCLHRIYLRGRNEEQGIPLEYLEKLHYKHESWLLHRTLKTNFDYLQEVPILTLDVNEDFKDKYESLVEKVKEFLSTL
Briefly: spectrophotometric coupled-enzyme kinase assay, dCK. The assay is classed as biochemical. The settings on record: FIG. 10A.
Excerpt: as §1
A quantitative measurement of individual enzymes' substrate specificity is possible via the determination of the kinetic parameters KM and kcat. […]
as §2

Assay [5] deals with E. coli expressing DmdNK from pDIM, pBAD or pET vectors. In words: flow cytometry (FACS) of E. coli overexpressing DmdNK. The assay is classed as cell-based. The conditions noted are these: pDIM vector in E. coli KY895, FIG. 9. The method, then: In a typical flow cytometry experiment, bacterial cultures are grown to mid-log phase and protein expression is induced for 4 h, followed by the addition of the fN or fNA to the culture broth. Cells are incubated for another 2 h prior to centrifugation and three wash-cycles with PBS buffer to reduce the fluorescence background. Cultures are then analyzed on a Becton Dickinson FACSVantage SE, equipped with a UV laser.
Several experiments were conducted to validate the design for a FACS-based high-throughput screening system for engineered dNKs. A first set of experiments addressed three main questions: a) what is an appropriate host/expression system for kinases in conjunction with fNAs (FIG. 9), b) are the fluorescent properties of the above-described fNAs sufficient for FACS, and c) what is the dynamic range of this screening system? […] In contrast, both the pET and pBAD system yield populations with a more significant portion of “positives”, cells with 10 to 20-fold higher fluorescence than background.
(A flow cytometer gives signals particle by particle.)

Assay [6] has as its target T3, 2′-deoxyribonucleoside kinase from Drosophila melanogaster (DmdNK) (Drosophila melanogaster, UniProt Q9XZT6).
T3 construct: made in house; host or cells: E. coli, pET-14b (Novagen)
T3 sequence (Q9XZT6 1-250): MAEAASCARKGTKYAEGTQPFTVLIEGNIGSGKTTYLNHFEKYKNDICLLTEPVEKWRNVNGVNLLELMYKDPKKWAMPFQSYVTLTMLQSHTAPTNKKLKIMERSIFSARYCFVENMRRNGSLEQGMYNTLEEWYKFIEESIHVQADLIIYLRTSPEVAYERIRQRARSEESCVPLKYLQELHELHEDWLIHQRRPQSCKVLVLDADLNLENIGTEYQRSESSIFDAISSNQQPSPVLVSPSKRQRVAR
Briefly: spectrophotometric coupled-enzyme kinase assay, DmdNK. The settings on record: wild type DmdNK, kcat/KM data FIG. 10A/11A, agrees with FACS FIG. 11B. The assay is classed as biochemical.
Excerpt: To investigate the kinetic properties of the above-described fNAs in vitro, a pET-based protein overexpression system was established for the production and purification of milligram quantities of individual dNKs. The genes for human 2′-deoxycytidine kinase (dCK) and fruitfly dNK (DmdNK), as well as the thymidine kinase from the bacterium Thermotoga maritime (TmTK) were subcloned into pET-14b (Novagen), an IPTG-inducible protein overexpression system that also introduces a poly-His tag at the target protein's amino terminus. Following protein overexpression, the tag enables one-step purification of the corresponding proteins on Ni-affinity resin, yielding enzyme of >95% purity as determined by SDS-PAGE. This protein overexpression system was successfully applied for the listed wild type kinases above, as well as for isolating engineered enzymes.
A quantitative measurement of individual enzymes' substrate specificity is possible via the determination of the kinetic parameters KM and kcat. Consistent with the literature, each kinase will be described by its relative activity for a fNA in comparison to its corresponding NA and thymidine: kcat(fNA)/kcat(NA), as well as by its relative catalytic efficiency: kcat/KM(fNA)/kcat/KM(NA). […]
as §2

T1 sequence (Q9WYN2 whole entry): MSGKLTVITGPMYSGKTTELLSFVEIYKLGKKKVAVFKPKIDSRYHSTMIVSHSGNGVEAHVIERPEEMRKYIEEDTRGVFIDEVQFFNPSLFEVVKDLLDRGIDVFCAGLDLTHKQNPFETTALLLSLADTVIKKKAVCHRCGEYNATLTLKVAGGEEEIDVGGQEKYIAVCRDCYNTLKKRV

Turning to `Cc1cc2cn([C@H]3C[C@H](O)[C@@H](CO)O3)c(=O)nc2o1` [compound 1, 6-methyl-3-(β-D-2′-deoxyribofuranosyl)furano-[2,3-d]pyrimidin-2-one], the “fluorescence signal in cells” value in assay [1] is on record as “no fluorescence signal beyond the cellular autofluorescence”. Also, the “accumulation of fluorescent probe inside cells” value in assay [2] was “accumulation of the fluorescent probe inside both strains”. Also, the “phosphorylation by type-II kinases” value in assay [3] was “no detectable phosphorylation”. For the same molecule, the “substrate activity / phosphorylation by dCK” value in assay [4] is “no activity”. The fluorescent cell population result in assay [5] is reported as “small subpopulation with fluorescence above background”. Besides, the “substrate activity / phosphorylation by DmdNK” value in assay [6] is “strong activity and good substrate and good”.

With `Cc1cc2cn(C3CC(N=[N+]=[N-])C(CO)O3)c(=O)nc2o1` (centres unmarked) [compound 16, 3-(4-azido-5-(hydroxymethyl)-tetrahydrofuran-2-yl)-6-methylfuro[2,3-d]pyrimidin-2(3H)-one], the “substrate activity / phosphorylation by DmdNK” value in assay [6] is “only background phosphorylation”.

As for `Cc1cc2cn(C3CCC(CO)O3)c(=O)nc2[nH]1` (centres unmarked) [compound 25, 3-(5-(hydroxymethyl)-tetrahydrofuran-2-yl)-6-methyl-3H-pyrrolo[2,3-d]pyrimidin-2(7H)-one], in assay [6], the “substrate activity / phosphorylation by DmdNK” value is given as “no detectable activity”.
